{
  "source": "patent US7629308B2",
  "about": "“Methods relating to muscle selective calcineurin interacting protein (MCIP)” (Board of Regents, The University of Texas System, priority 2000, dated 2009)",
  "key": {"[1]": {"tested_on": "MCIP1 mRNA", "experiment": "Northern blot of MCIP1 mRNA in C2C12 cells", "assay_type": "cell-based, mouse", "procedure": "(§1) Tissue culture, cell transfection or infection, reporter gene assays: C2C12 myoblasts and myotubes were cultured as previously described (Grayson et al, 1995). Ionomycin ([…]) and cyclosporin A (50 to 200 nM) were added 4 hrs prior to harvesting the cells. When included, cyclohexamide (25 mM) was added 15 min prior to ionomycin. Transient transfection with plasmids or infection with recombinant, replication-defective adenoviruses, and luciferase assays were performed as previously reported (Chin et al, 1998; Rothermel et al., 2000; Wu et al., 1973).\n(§2) RNA isolation and Northern blot analysis: Total RNA was prepared from mouse tissues or C2C12 cells using Tripure (Boehringer Mannheim, Inc.) following the manufacturer's protocol. Northern blot analysis was performed with […] of total RNA in each lane and probed in Ultrahyb (Ambion) with complementary sequences representing the 3′ UTR of MCIP1 (common to all known splicing variants), exon 1 of MCIP1, exon 4 of MCIP1, or ORF segments of MCIP2 or GAPDH cDNA. Probes were generated by PCR and labeled as described previously (Rothermel et al., 2000). Signals from Northern blots were detected on a Storm PhosphorImager (Molecular Dynamics) and quantified using ImageQuant (version 1.2)."}, "[2]": {"tested_on": "MCIP2 mRNA", "experiment": "Northern blot of MCIP2 mRNA in C2C12 cells", "assay_type": "cell-based, mouse", "procedure": "as §1, §2"}, "[3]": {"tested_on": "MCIP1 mRNA", "experiment": "Northern blot of MCIP1 mRNA in mouse heart and soleus", "assay_type": "in vivo", "procedure": "(§3) Animal experiments: Lines of transgenic mice in which the cc myosin heavy chain promoter is used to drive expression of a constitutively active form of calcineurin selectively in the heart were generated and described previously (Molkentin et al., 1998). Wildtype male C57B1/6 mice were injected intraperitoneally with 3, 5, 3′-triiodothyromine (T3) ([…]) or an equal volume of 0.9% saline once a day for ten days (Robbins & Swain, 1992). All experiments involving animals were conducted using IACRAC-approved protocols.\nas §2"}, "[4]": {"tested_on": "MCIP2 mRNA", "experiment": "Northern blot of MCIP2 mRNA in mouse heart and soleus", "assay_type": "in vivo", "procedure": "as §3, §2"}, "[5]": {"tested_on": "cardiac hypertrophy", "experiment": "Hyperthyroid cardiac hypertrophy induced by T3 injection", "assay_type": "in vivo, mouse", "conditions": "ten days i.p.; n=4", "procedure": "as §3"}, "[6]": {"tested_on": "cardiac hypertrophy", "experiment": "Cardiac hypertrophy after isoproterenol infusion or wheel running exercise", "assay_type": "in vivo, mouse", "procedure": "Intact animal studies: In addition to the genetic cross to α-MHC-CnA* animals, α-MHC-hMCIP1 transgenic mice and wild-type littermates were subjected to two independent stimuli known to provoke cardiac hypertrophy. Twelve-week old and 28-week old male mice were surgically implanted with a subcutaneous mini-osmotic pump (Alzet model 2001) that released isoproterenol in 0.9% NaCl at a rate of 28 mg per hour per […] of body weight over a seven day period. Control pumps delivered a 0.9% NaCl solution. Hearts were harvested on day eight. The heart body weight ratio (htw/bw) of isoproterenol-treated, animals were compared to the mean htw/bw ratio of age matched saline-treated animals of the same genotype. For exercise-induced hypertrophy, 28-week old male animals were placed in individual cages where they had free access to a running wheel. The number of revolutions was monitored continuously for 28 days. The animals ran an average of 3 to 5 kilometers a day. The heart body weight ratios (htw/bw) of the exercised animals were compared to the mean htw/bw ratios of age-matched sedentary animals of the same genotype. A Wilcoxon rank sum test was used to determine statistically significant differences among treatment groups (p<0.05). All animal protocols were reviewed and approved by the appropriate institutional review boards."}, "[7]": {"tested_on": "calcineurin", "experiment": "Luciferase reporter assays of calcineurin-dependent transcription in C2C12 cells", "assay_type": "cell-based, mouse", "text": "(§4) GST-MCIP1 fusions were expressed from the bacterial expression plasmid pGEX-CS (T. D. Parks, et al. 1994). Luciferase reporter plasmids, Mb-luc and IL-2-luc, were constructed in pGL3 (Promega) by inserting promoter/enhancer regions from genes encoding human myoglobin (Chin et al., 1998) or IL-2 (Clipstone et al., 1992), respectively. In addition, a synthetic enhancer consisting of three copies of a high affinity MEF2 binding sequence from the desmin promoter (Naya et al., 2000) was linked to a minimal promoter (hsp68) and inserted into pGL3 yielding the des-MEF-luc reporter. The β-galactosidase reporter plasmid pCMV-lacZ (J. Grayson, et al. 1998), and expression vectors encoding constitutively active forms of NFAT (Molkentin et al., 1998), calcineurin (CnA*) (Chin et al., 1998, O'Keefe et al., 1992), or calmodulin dependent protein kinase type IV (CaMKIV) (Ho et al., 1996), were previously described. The identity of plasmid constructions was confirmed by restriction mapping and partial DNA sequencing.\n(§5) Myoblasts were harvested 24 h after transfection.\nCell culture studies: C2C12 myoblasts were maintained and transfected as previously described (Rothermel et al., 2000). Luciferase assays of whole cell extracts were performed as previously described (Rothermel et al., 2000). All results were corrected for variations in transfection efficiency by normalization to expression of a cotransfected pCMV-LacZ plasmid."}, "[8]": {"molecular_target": "T1, calcineurin A (Mus musculus, UniProt P63328)", "T1 construct": "calcineurin A (amino acids 1-398) was translated in rabbit reticulocyte lysates; made in house; host or cells: calcineurin A: rabbit reticulocyte lysate (TNT coupled transcription/translation, Promega); GST-MCIP1: bacteria (pGEX-CS)", "experiment": "In vitro protein-protein interaction assay (GST pull-down)", "assay_type": "binding", "procedure": "In Vitro Protein-Protein Interaction Assays—GST and GST-MCIP1 fusion proteins were prepared as described previously (Grayson et al., 1998). [^35S]Methionine labeled CnA398, CnA342, and CnA266 were produced in the TNT coupled in vitro transcription/translation system (Promega). For in vitro binding assays, equivalent amounts of GST fusion proteins bound to glutathione were resuspended in 500 μl of binding buffer (20 mM Tris, pH 7.5, 100 mM KCl, 0.1 mM EDTA, 0.05% Nonidet P-40, 10% glycerol, and 1 mg/ml bovine serum albumin). [^35S]Methionine-labeled CnA proteins were added to the resuspended GST fusion proteins and incubated for 1 h. The beads were then spun down and washed three times in binding buffer. An equal volume of 2×SDS-PAGE loading buffer was added, and the suspension was boiled for 3 min. The bound proteins were then resolved on SDS-PAGE and visualized by autoradiography. ^35S-Labeled luciferase protein (Promega) was used as a negative control. For estimation of binding efficiency, 25% of the radiolabeled protein was loaded as an input control."}, "[9]": {"tested_on": "constitutively active form of NFATc", "experiment": "IL-2-luc reporter driven by constitutively active NFAT in C2C12 cells", "assay_type": "cell-based, mouse", "text": "as §4, §5"}, "[10]": {"tested_on": "Gal4-VP16", "conditions": "C2C12 cells", "description": "Tissue Culture, Cell Transfection, and Reporter Gene Assays—C2C12 myoblasts were grown in Dulbecco's modified Eagle's medium supplemented with 20% fetal bovine serum and antibiotics (100 units of penicillin and 100 g of streptomycin/ml). Myotube formation was induced by switching confluent cells to differentiation media (Dulbecco's modified Eagle's medium supplemented with 2% heat-inactivated horse serum) for 48-72 h. For transient transfection assays, C2C12 cells were plated 12 h before transfection in 12-well tissue culture dishes at 5×10^4 cells/well, and transfected with a total of 0.5 μg of plasmid DNA using LipofectAMINE Plus (Life Technologies, Inc.). Myoblasts were harvested 24 h after transfection. Myotubes were obtained by shifting cultures to differentiation media 24 h after transfection and harvesting 48 h later. To stimulate transfected cells, 1 μM ionomycin and 10 ng/ml phorbol myristate acetate (PMA) were added 4.5 h prior to harvesting. Luciferase assays of whole cell extracts were conducted as described previously (Yang et al., 1997)."}, "[11]": {"conditions": "C2C12, single culture dish, normalized to GAPDH mRNA"}, "[12]": {"conditions": "Heart, i.p. once a day for ten days"}, "[13]": {"conditions": "Soleus, pooled muscles from two animals"}},
  "note": "“And” between values parts separate entries of the source, which are not always exact repeats. Equal entries are not always repeated.",
  "data": [
    {"compound": "C[C@H](CCC(=O)O)C[C@H](C)C[C@H](C)C(=O)/C=C(\\O)[C@H](C)C[C@H](C)C/C=C/[C@@H](C)[C@@H](O)[C@@H](C)[C@@H](O)C[C@@H]1CC[C@@](C)([C@H]2CC[C@@](C)([C@@H](C)O)O2)O1", "note": "[Ionomycin, ionomycin]", "values": [
      {"measurement": "MC1P1 (fold change in mRNA), Response to Calcineurin Activation", "setting": "[1]; [11]", "result": "2.42 fold and 1.94 fold and 1.26 fold"},
      {"measurement": "up-regulation of MCIP1 mRNA in the presence of cyclohexamide", "setting": "[1]; C2C12 cells, cyclohexamide added 15 min prior", "result": "~10", "unit": "fold"},
      {"measurement": "induction of MCIP1 mRNA", "setting": "[1]; C2C12 myoblasts or myotubes, cyclohexamide absent", "result": 2, "unit": "fold"},
      {"measurement": "increase of MCIP1 mRNA in the absence of cyclosporin", "setting": "[1]; compared to cells treated with the highest dose of cyclosporin", "result": 4, "unit": "fold"},
      {"measurement": "MC1P2 (fold change in mRNA), Response to Calcineurin Activation", "setting": "[2]; [11]", "result": "0.94 fold and 1.00 fold and 1.12 fold"},
      {"measurement": "expression of MCIP2 mRNA", "setting": "[2]; C2C12 cells", "result": "unaffected"}
    ]},
    {"compound": "N[C@@H](Cc1cc(I)c(Oc2ccc(O)c(I)c2)c(I)c1)C(=O)O", "note": "[T3, 3,5, 3′-triiodothyromine]", "values": [
      {"measurement": "MC1P1 (fold change in mRNA), Response to Thyroid Hormone", "setting": "[3]; [12]", "result": "1.05 fold and 0.87 fold and 1.08 fold"},
      {"measurement": "MC1P1 (fold change in mRNA), Response to Thyroid Hormone", "setting": "[3]; [13]", "result": "0.78 fold and 1.05 fold and 1.24 fold"},
      {"measurement": "T3 Effect, MC1P1 (aggregate fold change, mean ±SE)", "setting": "[3]; heart and soleus", "result": "1.01 ± 0.06", "unit": "fold"},
      {"measurement": "expression of MCIP1 in hyperthyroid hearts", "setting": "[3]; heart, ten days", "result": "unaltered"},
      {"measurement": "MC1P2 (fold change in mRNA), Response to Thyroid Hormone", "setting": "[4]; [12]", "result": "1.59 fold and 1.81 fold and 1.71 fold"},
      {"measurement": "MC1P2 (fold change in mRNA), Response to Thyroid Hormone", "setting": "[4]; [13]", "result": "1.72 fold and 2.21 fold and 1.62 fold"},
      {"measurement": "increase of MCIP2 transcript levels", "setting": "[4]; both heart and soleus skeletal muscles", "result": "approximately 2 fold"},
      {"measurement": "T3 Effect, MC1P2 (aggregate fold change, mean ±SE)", "setting": "[4]; heart and soleus", "result": "1.78 ± 0.01", "unit": "fold"},
      {"measurement": "mean heart weight", "setting": "[5]", "result": 180, "unit": "mg"},
      {"measurement": "mean heart weight/body weight ratio", "setting": "[5]", "result": 7.2, "unit": "mg/gm"}
    ]},
    {"compound": "CC(C)NCC(O)c1ccc(O)c(O)c1", "note": "(stereo not shown) [isoproterenol]", "values": [
      {"measurement": "percent increase in heart weight to body weight ratio", "setting": "[6]; male wild-type mice, isoproterenol by osmotic minipump over seven days", "result": "22.8±1.95", "unit": "%"}
    ]},
    {"compound": "MCIP1: myocyte-enriched calcineurin interacting protein 1, product of human gene DSCR1; expressed from transfected plasmid or transgene", "values": [
      {"measurement": "percent increase in heart weight to body weight ratio", "setting": "[6]; α-MHC-hMCIP1 transgenic mice, isoproterenol over seven days", "result": "9.4±0.87", "unit": "%"},
      {"measurement": "effect on activation of the des-MEF2-luc reporter by CnA* alone or CnA* with CaMKIV", "setting": "[7]; C2C12 cells", "result": "inhibited"},
      {"measurement": "effect on calcineurin response of the MCIP1 (−874 to +30)-luciferase reporter", "setting": "[7]; C2C12 cells, not shown", "result": "represses this response"},
      {"measurement": "effect on activation of IL-2 and Mb enhancer constructs by CnA*", "setting": "[7]; C2C12 myoblasts and myotubes", "result": "abolished"},
      {"measurement": "inhibition of calcineurin induction of the IL-2-Luc reporter gene", "setting": "[7]; C2C12 myoblasts, pCMV-CnA*", "result": "almost completely inhibit"},
      {"measurement": "effect alone on activity of reporter constructs", "setting": "[7]; TATA-luc, IL-2-luc, Mb-luc, no CnA*", "result": "no effect"},
      {"measurement": "effect on PMA/ionophore activation of the myoglobin enhancer (Mb-luc)", "setting": "[7]; endogenous calcineurin, C2C12 myoblasts and myotubes", "result": "inhibited"},
      {"measurement": "binding to CnA(342)", "setting": "[8]; lacks calmodulin and calcineurin B binding regions", "result": "did not disrupt the interaction"},
      {"measurement": "binding to CnA(266)", "setting": "[8]; lacks carboxyl-terminal half of the catalytic domain", "result": "no longer capable of binding"},
      {"measurement": "effect on transcriptional activation mediated by NFAT (IL-2-luc)", "setting": "[9]", "result": "does not inhibit"},
      {"measurement": "effect on Gal4-VP16 induction of UASg-TATA-luc", "setting": "[10]", "result": "not affected"}
    ]}
  ]
}
